{"source": "patent US20090203700A1", "about": "“Azolylmethyloxiranes, Their Use for Controlling Phytopathogenic Fungi, and Compositions Comprising Them” (BASF SE, priority 2006, published 2009)", "key": {"Puccinia recondita": {"system": "Puccinia recondita", "test": "Protective activity against Puccinia recondita on wheat (brown rust of wheat) (Puccrt P1)", "type": "in vivo", "details": "250 ppm active compound, sprayed to runoff on potted wheat seedlings, inoculated next day; untreated plants 90% infected", "experimental": "The active compounds were prepared separately or jointly as a stock solution comprising 25 mg of active compound which was made up to 10 ml using a mixture of acetone and/or DMSO and the emulsifier Wettol EM 31 (wetting agent having emulsifying and dispersing action based on ethoxylated alkylphenols) in a volume ratio of solvent/emulsifier of 99:1. The mixture was then made up to 100 ml with water. This stock solution was diluted with the solvent/emulsifier/water mixture described to give the concentration of active compound stated below. Leaves of potted wheat seedlings were sprayed to runoff point with an aqueous suspension having the active compound concentration stated below. The next day, the treated plants were inoculated with a spore suspension of brown rust of wheat (Puccinia recondita). The plants were then placed in a chamber with high atmospheric humidity (90 to 95%) at 20 to 22° C. for 24 hours. During this time, the spores germinated and the germ tubes penetrated into the leaf tissue. The next day, the test plants were returned to the greenhouse and cultivated at temperatures between 20 and 22° C. and at 65 to 70% relative atmospheric humidity for a further 7 days. The extent of the rust fungus development on the leaves was then determined visually."}, "Pyrenophora teres": {"system": "Pyrenophora teres", "test": "Activity against net blotch of barley caused by Pyrenophora teres, 1 day protective application (Pyrnte P1)", "type": "in vivo, Pyrenophora [syn. Drechslera] teres on barley", "details": "250 ppm active compound, sprayed to runoff on potted barley seedlings, inoculated after 24 hours, assessed after 6 days; untreated plants 90% infected", "experimental": "The active compounds were prepared separately or jointly as a stock solution comprising 25 mg of active compound which was made up to 10 ml using a mixture of acetone and/or DMSO and the emulsifier Wettol EM 31 (wetting agent having emulsifying and dispersing action based on ethoxylated alkylphenols) in a volume ratio of solvent/emulsifier of 99:1. The mixture was then made up to 100 ml with water. This stock solution was diluted with the solvent/emulsifier/water mixture described to give the concentration of active compound stated below. Leaves of potted barley seedlings were sprayed to runoff point with an aqueous suspension having the active compound concentration stated below. 24 hours after the spray coating had dried on, the test plants were inoculated with an aqueous spore suspension of Pyrenophora [syn. Drechslera] teres, the net blotch pathogen. The test plants were then placed in a greenhouse at temperatures between 20 and 24° C. and at 95 to 100% relative atmospheric humidity. After 6 days, the extent of the development of the disease was determined visually in % infection of the entire leaf area."}}, "data": [{"smiles": "Fc1ccc([C@@]2(Cn3cncn3)O[C@@H]2c2cccnc2Cl)cc1", "note": "(racemic) [3-{(2RS,3SR)-3-[(1H-1,2,4-triazol-1-yl)methyl]-3-[4-fluorophenyl]oxiran-2-yl}-2-chloropyridine]", "values": [{"measurement": "infection (extent of rust fungus development on the leaves, determined visually)", "setting": "Puccinia recondita", "value": "not more than 10%"}, {"measurement": "infection (% infection of the entire leaf area, determined visually)", "setting": "Pyrenophora teres", "value": "not more than 20%"}]}]}
